Assays:
[1] = tested on: Human large intestine cancer cells COL-2-JCK; assay: Antitumor effects upon human large intestine cancer cells COL-2-JCK (colony formation, crystal violet staining); assay type: cell-based; conditions: 300 cells/well, 10 days incubation, control (0) 3311
Experimental: Human cancer cells from the large intestine, COL-2-JCK (moderately differentiated adenocarcinoma), purchased from the Central Institute for Experimental Animals, were employed in the Test Example of the present invention as the solid tumor strain. The proliferated CLO-2-JCK cells were cultured and used for the experiments in our laboratory. In order to subculture the strain of the cancer cells and to test compounds in the experiments, the cancer cells were cultured with D-MEM/F-12 culture medium containing bovine fetal serum (manufactured by GIBCO Co.).
The test was carried out as follows: COL-2-JCK cells growed confluently on a petri dish for culture of cells (inner diameter 100 mm) were removed from the petri dish by using EDTA and 0.05% trypsin solution, and diluted to 100 cells/ml cell density with the culture medium. 3 ml of the diluted cell solution was then placed into each well of a 6-well plate (300 cells/well). At the same time, the test compound dissolved in DMSO solution was added so as to be 1, 10, 100 nM, 1 and 10 μM of the final concentrations to each well. The final concentration of the DMSO solution was adjusted to 0.1%. DMSO solution (0.1%) alone was placed in wells of the control group. After addition of the test compound, the cells were incubated in the presence of 5% CO2 gas for 10 days at 37° C. After incubation was terminated, each well containing the cells was washed once with Dulbecco phosphate buffer saline (bivalent ion minus). Then 1 ml of 10% neutral formalin solution containing 0.02% crystal violet was added to the well and left for 5 minutes in order to stain the cells. After the dye was fixed, the cells were washed with water and air-dried. The total colony area (mm^2) of dye-fixed tumor cells was calculated by using an image analyzer of PCA-11 (manufactured by SystemSience Co.).

[2] = tested on: Human H69 lung cancer cells; assay: Antitumor effect on human H69 lung cancer cells (subcutaneous xenograft in nude mice); assay type: in vivo; conditions: H69 in BALB/c nude mice; 10 mg/kg orally once a day, 24 times; tumor volume on the 39th day after inoculation
Description: (§1) A piece (5 mm×5 mm) of human lung affected by H69 strain of lung cancer was subcutaneously inoculated in a group of 10 BALB/c nude mice (female, 6 weeks old). The test compounds were suspended in 5% emulsified saline containing 2.5% dimethylacetamide. They were orally administered once a day for 24 times in total, i.e., from the first day after the inoculation to the 4th day, from the 7th to the 11th day, from the 14th to the 18th day and from the 21st to the 25th day and from the 28th to the 32nd day after inoculation.
The short diameter (mm) and the long diameter (mm) of the tumor were measured with an electronic digital caliper square on the 39th day after inoculation. The efficacy of the test compound was evaluated by calculation of the inhibitory growth rate of the tumor (GI %) according to the following equation: […]
A: average tumor volume on the 39th day after inoculation in the group treated with the test compound (*)
B: an average tumor volume on the 39th day after inoculation in the non-treated group (*)
*: The tumor volume indicates ½×(long diameter of the tumor)×(short diameter of the tumor)^2.

[3] = tested on: Human MKN-74 stomach cancer cells; assay: Antitumor effects on human MKN-74 stomach cancer cells (subcutaneous xenograft in nude mice); assay type: in vivo
Description: as §1, with “human stomach” for “human lung”, “by MKN-74” for “by H69”, “of stomach” for “of lung”, “after” for “after the”, “18th day,” for “18th day and”, “after the” for “after”
The short diameter (mm) and the long diameter (mm) of the tumor were measured with an electronic digital caliper square on the 35th day after inoculation. The efficacy of the test compound was evaluated by calculation of the inhibitory growth rate of the tumor (GI %) in a similar to those described above in Test Example 2.

Structure (SMILES): COc1ccc2nc(COc3ccc(CC4SC(=O)NC4=O)cc3)n(C)c2c1.Cl (centres unmarked) [Example 1, 5-[4-(6-Methoxy-1-methyl-1H-benzimidazol-2-ylmethoxy)benzyl]thiazolidine-2,4-dione hydrochloride]
- Total colony area (mm^2) of tumor cells ([1]; final concentration of the test compound 1 nM): 2795 mm^2
- Total colony area (mm^2) of tumor cells ([1]; final concentration of the test compound 10 nM): 2018 mm^2
- Total colony area (mm^2) of tumor cells ([1]; final concentration of the test compound 100 nM): 1352 mm^2
- Total colony area (mm^2) of tumor cells ([1]; final concentration of the test compound 1 μM): 933 mm^2
- Total colony area (mm^2) of tumor cells ([1]; final concentration of the test compound 10 μM): 768 mm^2
- GI (%) inhibitory growth rate of the tumor [2]: 57%
- GI (%) inhibitory growth rate of the tumor ([3]; MKN-74 in BALB/c nude mice, 10 mg/kg orally once a day, 24 times, tumor volume on the 35th day after inoculation): 76%
- suppression of proliferation of human stomach cancer cells (in words) ([3]; as shown by Test Example 3): suppressed the proliferation of human stomach cancer cells to a remarkable extent
